Earlier results, collected in patent US7829544B2, “Aqueous solution preparation containing aminoglycoside antibiotic and bromfenac” (Senju Pharmaceutical Co., Ltd., priority 2003, dated 2010).

Settings: tobramycin combined with diclofenac sodium

NC[C@H]1O[C@H](O[C@H]2[C@H](O)[C@@H](O[C@H]3O[C@H](CO)[C@@H](O)[C@H](N)[C@H]3O)[C@H](N)C[C@@H]2N)[C@H](N)C[C@@H]1O [tobramycin]
behaviour of the combination solution: precipitation or suspension formation occurs
